Reference: article PMC5330453, “Synthesis and biological evaluation of dihydropyrano-[2,3-c]pyrazoles as a new class of PPARγ partial agonists” (PLoS ONE, 2017)
Several values for one entry are separate records, joined by “and”; a condition that tells them apart may be missing. Identical values can stand only once. Like-named read-outs stand apart in the source and are kept apart here.

Experiments:
[1] = target: T1, hPPARγ LBD (Homo sapiens, UniProt P37231); test: Nuclear receptor-LBD transactivation (Gal4-LBD luciferase reporter) in mouse embryo fibroblasts; type: cell-based; parameters: expressed in transfected cells; host or cells: mouse embryo fibroblasts (MEFs); details: for induction of transcriptional activation (in words): cell based transactivation assay; for transactivation selectivity towards all three PPAR subtypes: compared with PPARα and PPARδ transactivation
T1 sequence (P37231 238-503 limits assumed): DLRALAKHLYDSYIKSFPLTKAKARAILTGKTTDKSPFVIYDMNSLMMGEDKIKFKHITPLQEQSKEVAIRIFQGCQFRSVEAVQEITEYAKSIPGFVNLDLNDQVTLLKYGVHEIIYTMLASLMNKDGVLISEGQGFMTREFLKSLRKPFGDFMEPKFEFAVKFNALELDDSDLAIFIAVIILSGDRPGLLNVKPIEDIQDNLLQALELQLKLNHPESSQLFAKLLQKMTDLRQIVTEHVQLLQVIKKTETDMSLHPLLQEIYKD
Text: Mouse embryo fibroblasts (MEFs) were propagated in Dulbeccos Modified Eagle’s Media (DMEM) supplemented with 10% FCS and antibiotics.
Cells (Hepa 1–6 were used for PPARα whereas MEFs were used for PPARγ, PPARδ and RXRα transfections) were transfected in solution by Metafectene (Biontex) lipofection, essentially according to the manufacturer’s instructions and seeded in media (MEM or DMEM supplemented with 10% fetal calf serum and antibiotics in 96-well dishes at 24000 cells/cm^2. The transfection plasmid mix included the Gal4-responsive luciferase reporter, the expression vector for the fusion between the Gal4 DNA-binding domain and the nuclear receptor ligand binding domains, and a CMV-Renilla luciferase normalization vector (pRL-CMV, Promega). Six hours after addition of transfection mix to the cells, the media was changed to media (MEM or DMEM) supplemented with vehicle (0.1% DMSO), positive control (1 μM Rosiglitazone, 30 nM GW7647, 1 μM L165041 or 0.2 μM LG1069 for PPARγ, PPARα, PPARδ and RXRα, respectively), or compound. Approx. 18 hours later, cells were harvested and lysates analyzed for Photinus and Renilla luciferase activity by luminometry. All data points were performed in at least triplicate and each sample measured in duplicate. Luminometer raw data was analyzed in Microsoft Excel spreadsheets and presented as column graphs depicting average values of triplicates and including standard deviations.

[2] = target: T1, hPPARγ LBD; test: TR-FRET competitive binding assay (LanthaScreen), displacement of a fluorescent pan PPAR agonist tracer; details: GST-tagged PPARγ-LBD, 10 concentrations 3 nM to 500 μM, triplicate
Description: IC50 values for respective compounds were determined by competitive binding using time-resolved fluorescence resonance energy transfer (LanthaScreen, Invitrogen) on a Victor2 microplate reader (PerkinElmer). Briefly, a terbium labeled anti-GST antibody was used to label purified GST-tagged PPARγ-LBD (ligand binding domain). Energy transfer from terbium to the tracer, a fluorescent pan PPAR agonist, enabled read-out of each test compounds’s ability to displace the tracer. RFU values from dose-response curves (triplicate sampling) for test compounds as well as positive controls (rosiglitazone) were then analyzed using GraphPad Prism [33]. An unrestrained sigmoidal (one-binding site) dose-response curve was fitted to each data set by linear regression and allowing for determination of IC50 values.

[3] = test system: PPARγ; parameters: method as in PMID 23432662; details: earlier study; read-out: inhibitor activity IC50; cited from earlier work
[4] = test system: adipocyte differentiation; parameters: method as in PMID 23432662; details: earlier study; cited from earlier work
[5] = hPPARγ LBD ligand displacement IC50, TR-FRET
[6] = read-out: hPPARγ LBD ligand displacement IC50, TR-FRET

| Compound | IC50 [2, 5] | other results |
| --- | --- | --- |
| Cc1ccccc1C1C(C#N)=C(N)Oc2[nH]nc(Cc3ccccc3)c21 (centres unmarked) [10b, 6-Amino-3-benzyl-5(o-tolyl)-1,4-dihydropyrano[2,3-c]pyrazole-5-carbonitrile] | 15.7 µM | induction of transcriptional activation (in words) [1]: did not induce transcriptional activation |
| COc1ccc(C2C(C#N)=C(N)Oc3[nH]nc(C)c32)c(C)c1C (centres unmarked) [10y, 6-Amino-4-(4-methoxy-2,3-dimethylphenyl)-3-methyl-1,4-dihydropyrano[2,3-c]pyrazole-5-carbonitrile] | 87 µM | – |
| Cc1ccc(C)c(C2C(C#N)=C(N)Oc3c2c(C)nn3-c2ccc(Cl)cc2)c1 (centres unmarked) [10ae, 6-Amino-1-(4-chlorophenyl)-4-(2,5-dimethylphenyl)-3-methyl-1,4-dihydropyrano[2,3-c]pyrazole-5-carbonitrile] | 0.52 µM and ≤ 1 µM | transactivation selectivity towards all three PPAR subtypes [1]: selective against PPARγ |
| Cc1nn(-c2ccccc2)c2c1C(c1ccc(Cl)cc1Cl)C(C#N)=C(N)O2 (centres unmarked) [10f] | – | induction of transcriptional activation (in words) [1]: did not induce transcriptional activation |
| CCCc1n[nH]c2c1C(c1ccc(Cl)cc1)C(C#N)=C(N)O2 (centres unmarked) [10n, 6-Amino-4-(4-chlorophenyl)-3-propyl-1,4-dihydropyrano[2,3-c]pyrazole-5-carbonitrile] | 31 µM | – |
| Cc1nn(-c2ccccc2)c2c1C(c1ccccc1)C(C#N)=C(N)O2 (centres unmarked) [10ad, 6-Amino-3-methyl-1,4-diphenyl-1,4-dihydropyrano[2,3-c]pyrazole-5-carbonitrile] | 215 µM and > 100 µM | – |
| Cc1n[nH]c2c1C(c1ccc(Cl)cc1Cl)C(C#N)=C(N)O2 (centres unmarked) [10x, 6-Amino-4-(2,4-dichlorophenyl)-3-methyl-1,4-dihydropyrano[2,3-c]pyrazole-5-carbonitrile] | 59 µM | – |
| Cc1ccc(C2C(C#N)=C(N)Oc3[nH]nc(Cc4ccccc4)c32)c(C)c1 (centres unmarked) [10c, 6-Amino-3-benzyl-4-(2,4-dimethylphenyl)-1,4-dihydropyrano[2,3-c]pyrazole-5-carbonitrile] | 104 µM and > 100 µM | – |
| Cc1ccc(C2C(C#N)=C(N)Oc3[nH]nc(-c4ccccc4)c32)c(C)c1 (centres unmarked) [10i, 6-Amino-4-(2,4-dimethylphenyl)-3-phenyl-1,4-dihydropyrano[2,3-c]pyrazole-5-carbonitrile] | 75 µM | – |
| CCCc1n[nH]c2c1C(c1cc(C)ccc1C)C(C#N)=C(N)O2 (centres unmarked) [10p, 6-Amino-4-(2,5-dimethylphenyl)-3-propyl-1,4-dihydropyrano[2,3-c]pyrazole-5-carbonitrile] | 91 µM | – |
| Cc1ccccc1C1C(C#N)=C(N)Oc2c1c(C)nn2-c1ccc(Cl)cc1 (centres unmarked) [10af] | – | transactivation selectivity towards all three PPAR subtypes [1]: selective against PPARγ; IC50 [2, 6]: ≤ 1 µM |
| Cc1cc(C)c([C@@H]2C(C#N)=C(N)Oc3n[nH]c(C)c32)cc1COc1ccc(Cl)cc1C (stereo in doubt) [compound 4] | 32 µM | IC50 [3]: 30 µM; induction of adipocyte differentiation [4]: relatively poor induction of adipocyte differentiation |
| Cc1nn(-c2ccccc2)c2c1C(c1ccc(Cl)cc1Cl)C(C#N)=C(N)O2 (centres unmarked) [10ag, 6-Amino-4-(2,4-dichlorophenyl)-3-methyl-1-phenyl-1,4-dihydropyrano[2,3-c]pyrazole-5-carbonitrile] | 14 µM | – |
| Cc1ccc(C)c(C2C(C#N)=C(N)Oc3[nH]nc(-c4ccccc4)c32)c1 (centres unmarked) [10g] | – | IC50 [2, 6]: > 100 µM |

Second part, led by results:

| IC50 [2, 5] | Compound | other results |
| --- | --- | --- |
| 14 µM | CCCc1n[nH]c2c1C(c1ccc(C)cc1C)C(C#N)=C(N)O2 (centres unmarked) [10m, 6-Amino-4-(2,4-dimethylphenyl)-3-propyl-1,4-dihydropyrano[2,3-c]pyrazole-5-carbonitrile] | – |
| 407 µM and > 100 µM | Cc1ccc(C2C(C#N)=C(N)Oc3[nH]nc(C)c32)c(C)c1 (centres unmarked) [10aa, 6-Amino-4-(2,4-dimethylphenyl)-3-methyl-1,4-dihydropyrano[2,3-c]pyrazole-5-carbonitrile] | – |
| 173 µM and > 100 µM | N#CC1=C(N)Oc2[nH]nc(-c3ccccc3)c2C1c1ccccc1 (centres unmarked) [10h, 6-Amino-3,4-diphenyl-1,4-dihydropyrano[2,3-c]pyrazole-5-carbonitrile] | – |
| 14 µM | Cc1cc(C)c(C2C(C#N)=C(N)Oc3[nH]nc(C)c32)cc1COc1ccc(Cl)c2cccnc12 (centres unmarked) [10s, 6-Amino-4-(5-(((5-chloroquinolin-8-yl)oxy)methyl)-2,4-dimethylphenyl)-3-methyl-1,4-dihydropyrano[2,3-c]pyrazole-5-carbonitrile] | – |
